Source: patent EP3821949B1, “PHARMACEUTICAL COMPOSITION FOR USE IN THE TREATMENT OF A CANCER ASSOCIATED WITH THE ACTIVATION OF GALECTIN-1” (Trineo Biotechnology Co. Ltd, priority 2019, dated 2021)
Several values for one entry are separate records, joined by “and”; a condition that tells them apart may be missing. Equal values may be shown once.

How the values were obtained:
Format in all cases: cell-based
[1] = system: myeloma ARH-77 cells; test: MTT assay on myeloma ARH-77 cells, chemotherapeutic drug alone or combined with TN-GL-01 or a comparative drug; conditions: for IC50: Homo sapiens, ARH-77 cells, chemotherapeutic agent alone (control)
Procedure: (§1) Ovarian cancer cell ES-2 and myeloma cell line ARH-77 were used in the present disclosure. Cells was cultured and maintained in Dulbecco's modified Eagle media (DMEM) supplemented with 10 % fetal bovine serum (FBS), 100 IU/ml penicillin, […] streptomycin, 2 mM glutamine, nonessential amino acids and sodium pyruvate in 5% CO2 at 37 °C. Cells were grown and maintained in Petri dishes (each was 10 cm in diameter) until they reached 80% confluence, and then were subject to cell passages. Briefly, cells were first washed with phosphate buffer solution (PBS, 3 ml) once, then treated with 0.05% Trypsin/0.025% EDTA solution (1 mL) for 5 min so that the attached cells become suspended. The suspended cells were harvested and 2 mL fresh culture media were added therein to neutralize any remaining activity of trypsin. Cell density was adjusted by adding appropriate amounts of culture medium to the cell suspension, which was then used to seed the culture plates. The plates were then returned to the incubator, and cultured in accordance with the steps described above.
Cells were seeded in 96-well plates with a density of 3,000 cells/well and cultured in accordance with the procedures described above. On the day when cell activity analysis was to be conducted, cells were first treated with various concentrations of the triterpenoids of the present disclosure, imatinib or gefitinib for at least 48 hrs, before subjecting them to MTT assay.
(§2) 50 µL of the MTT stock solution (5 mg MTT dissolved in 1 ml of sterile PBS) was added to each well, and 50 µL of the MTT stock solution was added to 500 µL of medium alone and used as a negative control. Each sample was incubated at 37°C for 4 hours. Aliquots (450 µl) from each sample were taken to a new well of 48-well culture plate, adding 100µL DMSO, mixing thoroughly using the pipette and reacted at 37°C for 20 min and absorbance was measured at 570 nm.
In this example, the effect of TN-GL-01 composition of example 1.1 on the cell killing effect of a chemotherapeutic drug (i.e., etoposide, doxorubicin, cisplatin, and paclitaxel) on myeloma ARH-77 cells was investigated, in which cyclophosphamide served as a comparative drug. Results are summarized in Tables 1 to 3, and Figures 3 and 4.
To determine the effects of combined use of TN-GL-01 and any other three drugs including paclitaxel, doxorubicin, and cisplatin, the statistical differences between expected value and oberved value of the survival rate were calculated. If no significantance existed between the expected and observed values, the effect is termed"additivity (p > 0.05)". […] The expected value was determined by multifying the survival rate of each drug in specific dose. The obtained value and value of each survival rate were measured by MMT assay (Fig. 3 and Fig. 4).

[2] = system: ES-2 cells; test: MTT assay (cell activity analysis) on ovarian cancer ES-2 cells; conditions: treatment at least 48 hrs
Procedure: as §1, with “The suspended cells were harvested and 2 mL fresh culture media were added therein to neutralize any remaining activity of trypsin. Cell density was adjusted by adding appropriate amounts of culture medium to the cell suspension, which was then used to seed the culture plates. The plates were then returned to the incubator, and cultured in accordance with the steps described above.” left out
as §2, with “Each sample was incubated at 37°C for 4 hours.” left out
The effects of the TN-GL-01 composition of example 1.1 on ovarian cancer cells (i.e., ES-2 cells) were evaluated by MTT assay in accordance with procedures described in the "Material and Methods" section.

[3] = system: galectin-1; test: Western blot analysis of galectin-1 expression in ES-2 cells; conditions: Figure 2
Procedure: Samples were respectively subjected to SDS-PAGE, transferred to PVDF membranes. These blots were blocked with 5% nonfat milk powder in TBS-0.1% Tween-20 for 30 minutes, followed by incubation with primary antibodies at 4°C overnight and then horseradish peroxidaseconjugated secondary antibodies (Amersham Biosciences, Piscataway). Imaging of bands was performed using Pierce ECL Western Blotting Substrate (Thermo Fisher Scientific) and ImageQuant LAS-4000 (GE Healthcare).
In this example, the effects of TN-GL-01 composition on the expression of galectin-1 in ERK (extracellular-signal-regulated kinase) pathway was invesigated via western blot analysis. […] Thus, it was concluded that the present TN-GL-01 composition exerted its function through suppression of galectin -1.

[4] = Table 2, second agent alone: TN-GL-01 20 µg/mL, Doxorubicin 100 nM, Cisplatin 3 µM
[5] = Table 3, second agent alone: TN-GL-01 20 µg/mL, Paclitaxel 40 µM, Cisplatin 3 µM

IC50 [1] [nM]	SMILES	Cell Survival Rate, single drug (factor of expected value) [1, 4]	Cell Survival Rate, single drug (factor of expected value) [1, 5]	50% inhibition of ES-2 cells (IC50) [2] [µg/mL]	expression of galectin-1 [3]	further results
	N.N.[Cl][Pt][Cl] [Cisplatin]	0.65	0.69			
	C/C(=C/CC[C@@H](C)[C@H]1CC[C@@]2(C)C3=CC[C@H]4C(C)(C)C(=O)CC[C@]4(C)C3=CC[C@]12C)C(=O)O [GAS, ganoderic acid S]			58.3	effective in suppressing	
	CC(=O)O[C@H]1C(=O)[C@@]2(C)[C@H]([C@H](OC(=O)c3ccccc3)[C@]3(O)C[C@H](OC(=O)[C@H](O)[C@@H](NC(=O)c4ccccc4)c4ccccc4)C(C)=C1C3(C)C)[C@]1(OC(C)=O)CO[C@@H]1C[C@@H]2O [Paclitaxel]		0.65			Cell Survival Rate, single drug (factor of expected value) ([1]; Table 2, Paclitaxel 62.5 nM alone): 0.68 × 0.82 = 0.56±0.03 and 0.68; Cell Survival Rate, single drug (factor of expected value) ([1]; Table 2, Paclitaxel 125 nM alone): 0.50 × 0.82 = 0.41±0.03 and 0.50
	CC(=O)O[C@@H](C/C=C(\C)C(=O)O)[C@@H](C)[C@H]1C[C@H](OC(C)=O)[C@@]2(C)C3=CC[C@H]4C(C)(C)[C@H](OC(C)=O)CC[C@]4(C)C3=CC[C@]12C [GAT, ganoderic acid T]			24.5	effective in suppressing	
99	COc1cccc2c1C(=O)c1c(O)c3c(c(O)c1C2=O)C[C@@](O)(C(=O)CO)C[C@@H]3O[C@H]1C[C@H](N)[C@H](O)[C@H](C)O1 [Doxorubicin]	0.58				
415	COc1cc([C@@H]2c3cc4c(cc3[C@@H](O[C@@H]3O[C@@H]5CO[C@@H](C)O[C@H]5[C@H](O)[C@H]3O)[C@H]3COC(=O)[C@H]23)OCO4)cc(OC)c1O [Etoposide]					
